Laboratory results as given in patent publication US10717757B2, “Ketolides having antibacterial activity” (BIOPHARMATI SA, priority 2016, dated 2020).
pIC50: −log10 of the molar value. ≈ marks a conversion by molar mass, not a printed value. Where “and” joins values, the source holds several entries; their conditions need not be identical. Identical values can stand only once.

Legend:
[1] = target: P-gp (Homo sapiens, UniProt P08183); conditions: background statement; cited from earlier work
[2] = target: T1, CYP3A4 (Homo sapiens, UniProt P08684); test: biochemical
T1 sequence (P08684 whole entry): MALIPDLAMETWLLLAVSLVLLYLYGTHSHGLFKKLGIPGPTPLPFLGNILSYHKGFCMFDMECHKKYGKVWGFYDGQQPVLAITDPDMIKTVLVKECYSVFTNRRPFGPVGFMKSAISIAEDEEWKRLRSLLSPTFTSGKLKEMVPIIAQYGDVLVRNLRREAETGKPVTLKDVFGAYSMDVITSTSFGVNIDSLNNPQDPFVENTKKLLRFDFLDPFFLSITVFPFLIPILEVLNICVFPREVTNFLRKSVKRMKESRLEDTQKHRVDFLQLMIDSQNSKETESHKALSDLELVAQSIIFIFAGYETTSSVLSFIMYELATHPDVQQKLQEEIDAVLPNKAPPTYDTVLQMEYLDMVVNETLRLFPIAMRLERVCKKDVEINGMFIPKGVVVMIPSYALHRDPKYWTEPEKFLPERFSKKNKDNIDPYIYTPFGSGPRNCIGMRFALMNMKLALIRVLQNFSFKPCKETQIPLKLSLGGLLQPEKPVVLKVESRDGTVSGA
Experimental: (§8) Cytochrome P4503A4 Inhibition Assay for Determining IC50
(§9) The potential of the compound to inhibit CYP 3A4 was tested by the LC-MS/MS based probe substrate method using human liver microsomes. Midazolam or testosterone, which are metabolized to hydroxymidazolam or hydroxytestosterone by CYP 3A4, were the probe substrates used. […] NADPH was added as the cofactor. […] After incubation for ten minutes, the amount of 1-hydroxymidazolam or 6β-hydroxyltestosterone formed was determined by LC-MS/MS method as a measure of enzyme activity. Percent inhibition of enzyme activity was calculated based on the amount of metabolites (1-hydroxymidazolam or 6β-hydroxyltestosterone) formed for each sample relative to the basal control and plotted in a curve versus the compound concentration to obtain the IC50.

[3] = tested on: S. pneumoniae AUCC489, macrolide & penicillin resistant; test: Minimum inhibitory concentration (MIC), broth microdilution, AUCC489; type: cell-based, Streptococcus pneumoniae
Experimental: (§1) Protocols for Determining Minimum Inhibitory Concentration (MIC) of Test Compounds Against Streptococcus Pneumoniae Strains
(§2) The test strains are revived from frozen stock on blood agar plates and incubated at 35±2° C. for 18-20 hours in 5% CO2. Colonies are directly suspended from an overnight grown agar culture in CAMHB/saline and optical density adjusted to 0.5 McFarland turbidity standard (1-2×10^8 cfu/mL). Adjusted cultures are further diluted 1:100 using CAMHB such that after inoculation each well finally contains ˜5×10^5 cfu/mL. For broth dilution testing of Streptococcus species, CAMHB is supplemented with 2.5-5% v/v LHB. Colony counts of inoculum suspension is estimated by ten-fold serial dilutions and plating each dilution on agar plate. After incubation, the plates are observed for growth and microbial counts determined.
(§3) Compounds are weighed and dissolved in water/DMSO/other solvent to yield 1 mg/mL stock solution. Serial two-fold dilutions of the test compounds and reference antibiotics are prepared. 50 μL of the diluted drug solutions are dispensed in wells of microtiter trays (96 well).
(§4) To each of the wells of the microtiter tray, 50 μL of the diluted organism are inoculated to obtain a final inoculum density of ˜5×10^5 cfu/mL. Broth control, compound control and organism control wells are set up.
(§5) MIC testing are done in duplicates
(§6) MIC is defined as the lowest concentration of an antimicrobial agent that prevents visible growth of a microorganism in broth dilution susceptibility test.
(§7) After incubation period, growth of organism in the wells are detected by unaided eye facilitated by a viewing device. The amount of growth in the drug-containing wells are compared with the amount of growth in the organism-control wells.

[4] = tested on: S. pneumoniae AUCC479, macrolide & penicillin sensitive; test: Minimum inhibitory concentration (MIC), broth microdilution, AUCC479; type: cell-based, Streptococcus pneumoniae
Experimental: as §1, §2, §3, §4, §5, §6, §7

[5] = tested on: S. pneumoniae ATCC 49619 (CLSI QC strain); test: Minimum inhibitory concentration (MIC), broth microdilution, QC strain; type: cell-based, Streptococcus pneumoniae; conditions: MIC in duplicates
Experimental: as §1, §2, §3, §4, §5, §6, §7

[6] = tested on: S. pneumoniae AUCC488, macrolide & penicillin resistant; test: Minimum inhibitory concentration (MIC), broth microdilution, AUCC488; type: cell-based, Streptococcus pneumoniae
Experimental: as §1, §2, §3, §4, §5, §6, §7

[7] = target: T1, CYP3A4; conditions: background statement; cited from earlier work
[8] = tested on: S. pneumoniae AUCC483, macrolide resistant & penicillin sensitive; test: Minimum inhibitory concentration (MIC), broth microdilution, AUCC483; type: cell-based, Streptococcus pneumoniae
Experimental: as §1, §2, §3, §4, §5, §6, §7

[9] = target: T1, CYP3A4; test: Cytochrome P4503A4 inhibition assay, human liver microsomes, LC-MS/MS probe substrate method; conditions: for pIC50: human liver microsomes 0.1 mg/mL, 10 min; for CYP3A4 inhibition in comparison with solithromycin and ketoconazole: summary of Table 1
Experimental: as §8, §9

[10] = tested on: CYP3A; conditions: in vitro, cited from earlier work
[11] = Oral bioavailability and tissue distribution after a single oral treatment; type: in vivo
[12] = tested on: macrolide-resistant S. pneumoniae strains; test: Mouse lung infection models; type: in vivo
[13] = read-out: IC50 CYP3A4 (midazolam), 5 μM midazolam
[14] = read-out: IC50 CYP3A4 (testosterone), 50 μM testosterone

Sequence of P-gp (P08183 whole entry): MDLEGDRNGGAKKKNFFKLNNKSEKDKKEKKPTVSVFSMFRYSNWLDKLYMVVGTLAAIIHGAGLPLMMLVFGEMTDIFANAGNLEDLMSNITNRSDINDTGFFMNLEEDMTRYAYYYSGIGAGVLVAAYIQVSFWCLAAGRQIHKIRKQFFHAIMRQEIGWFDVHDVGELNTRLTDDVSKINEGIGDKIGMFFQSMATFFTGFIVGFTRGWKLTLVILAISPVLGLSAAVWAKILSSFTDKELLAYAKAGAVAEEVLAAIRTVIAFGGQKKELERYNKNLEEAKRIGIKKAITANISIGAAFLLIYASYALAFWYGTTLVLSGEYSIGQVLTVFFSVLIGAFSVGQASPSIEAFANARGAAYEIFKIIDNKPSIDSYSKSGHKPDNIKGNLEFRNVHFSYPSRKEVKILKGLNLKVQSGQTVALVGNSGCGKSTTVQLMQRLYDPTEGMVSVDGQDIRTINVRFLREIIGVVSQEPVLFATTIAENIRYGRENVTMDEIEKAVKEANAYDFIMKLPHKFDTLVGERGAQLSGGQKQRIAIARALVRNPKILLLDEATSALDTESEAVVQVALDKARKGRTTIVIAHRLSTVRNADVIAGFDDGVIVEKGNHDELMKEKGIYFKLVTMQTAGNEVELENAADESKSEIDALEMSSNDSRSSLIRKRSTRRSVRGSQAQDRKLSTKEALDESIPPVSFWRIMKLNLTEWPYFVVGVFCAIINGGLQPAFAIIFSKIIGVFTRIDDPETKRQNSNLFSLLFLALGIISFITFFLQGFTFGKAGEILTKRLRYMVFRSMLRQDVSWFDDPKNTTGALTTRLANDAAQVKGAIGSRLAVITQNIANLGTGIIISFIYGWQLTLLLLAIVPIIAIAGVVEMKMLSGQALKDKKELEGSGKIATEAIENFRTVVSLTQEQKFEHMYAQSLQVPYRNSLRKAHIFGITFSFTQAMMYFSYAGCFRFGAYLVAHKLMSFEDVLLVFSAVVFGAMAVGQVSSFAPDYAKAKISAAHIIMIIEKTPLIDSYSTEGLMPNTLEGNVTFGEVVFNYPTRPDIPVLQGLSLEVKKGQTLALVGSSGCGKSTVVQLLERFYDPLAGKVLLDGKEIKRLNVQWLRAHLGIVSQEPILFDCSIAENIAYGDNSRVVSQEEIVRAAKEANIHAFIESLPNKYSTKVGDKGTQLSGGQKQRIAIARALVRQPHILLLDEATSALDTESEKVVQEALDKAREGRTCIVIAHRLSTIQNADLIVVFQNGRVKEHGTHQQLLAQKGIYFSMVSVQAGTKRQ

| Compound | inhibition of P-gp [1] | pIC50 [2] | MIC Strep. Pneumoniae AUCC 489 penR, macR cMLS [3] [µg/mL] | MIC Strep. Pneumoniae AUCC 479 penS, macS [4] [µg/mL] | MIC ([5]; Streptococcus pneumoniae, ATCC49619 QC strain, read-out: MIC Strep. Pneumoniae ATCC49619 QC strain) [µg/mL] | MIC Strep. Pneumoniae AUCC 488 penR, macR M or iMLS [6] [µg/mL] | inhibition of CYP3A4 [7] | MIC Strep. Pneumoniae AUCC 483 penS, macR cMLS [8] [µg/mL] | MIC Strep. Pneumoniae ATCC49619 QC strain [5] [µg/mL] | pIC50 [9, 13] | CYP3A4 inhibition in comparison with solithromycin and ketoconazole [9] | pIC50 [9, 14] | pIC50 ([10]; Katz et al / FDA briefing document, read-out: IC50 of CYP3A-dependent nifedipine oxidation) | IC50 of CYP3A-dependent nifedipine oxidation ([10]; same value in ng/mL) [µg/mL] | time drug level in the lungs remained elevated ([11]; lungs, after a single oral treatment) | oral bioavailability ([11]; oral) | tissue distribution ([11]; oral) | efficacy in mouse lung infection models [12] |
| --- | --- | --- | --- | --- | --- | --- | --- | --- | --- | --- | --- | --- | --- | --- | --- | --- | --- | --- |
| CC[C@H]1OC(=O)[C@@](C)(F)C(=O)[C@H](C)[C@@H](O[C@@H]2O[C@H](C)C[C@H](N(C)C)[C@H]2O)[C@](C)(OC)C[C@@H](C)C(=O)[C@H](C)[C@H]2N(CCCCn3cc(-c4cccc(N)c4)nn3)C(=O)O[C@]12C [solithromycin, reference compound] | moderate inhibitor | 6.40 and 5.83 | 0.004 to 0.008 | 0.004 to 0.015 | 0.004 to 0.015 (≈ 0.00473 to 0.0178 µM) | 0.06 to 0.25 | strong inhibitor | 0.008 to 0.015 |  |  |  |  |  |  |  |  |  |  |
| (3aS,4R,7R,9R,10R,11R,13R,15R,15aR)-10-{[(2S,3R,4S,6R)-4-(dimethylamino)-3-hydroxy-6-methyloxan-2-yl]oxy}-4-ethyl-3a,7,9,11,13,15-hexamethyl-1-[2-(pyrrolidin-1-yl)ethyl]-11-{[(2E)-3-(quinolin-3-yl)prop-2-en-1-yl]oxy}-tetradecahydro-1H-oxacyclotetradeca[4,3-d][1,3]oxazole-2,6,8,14-tetrone [Compound 13I] |  |  | 0.25 to 1 | 0.015 to 0.03 |  | 0.25 to 0.5 |  | 0.25 to 1 | 0.03 to 0.06 | 5.68 | lower IC50 inhibition of CYP3A4 inhibition |  |  |  |  |  |  |  |
| CCC1OC(=O)C(C)C(=O)C(C)C(OC2OC(C)CC(N(C)C)C2O)C(C)(OCC=Cc2cnc3ccccc3c2)CC(C)C(=O)C(C)C2N(CC3CCN(C)C3)C(=O)OC12C [Compound 13N, (3aS,4R,7R,9R,10R,11R,13R,15R,15aR)-10-{[(2S,3R,4S,6R)-4-(dimethylamino)-3-hydroxy-6-methyloxan-2-yl]oxy}-4-ethyl-3a,7,9,11,13,15-hexamethyl-1-{[(3S)-1-methylpyrrolidin-3-yl]methyl}-11-{[(2E)-3-(quinolin-3-yl)prop-2-en-1-yl]oxy}-tetradecahydro-1H-oxacyclotetradeca[4,3-d][1,3]oxazole-2,6,8,14-tetrone] |  |  | 0.5 to 1 | 0.03 (≈ 0.0348 µM) |  | 0.5 to 1 |  | 0.5 to 1 | 0.03 to 0.06 |  | lower IC50 inhibition of CYP3A4 inhibition | 5.11 |  |  |  |  |  |  |
| CC[C@H]1OC(=O)[C@H](C)C(=O)[C@H](C)[C@@H](O[C@@H]2O[C@H](C)C[C@H](N(C)C)[C@H]2O)[C@](C)(OC/C=C/c2cnc3ccccc3c2)C[C@@H](C)C(=O)[C@H](C)[C@H]2N(CC3CCN(C)CC3)C(=O)O[C@]12C [Compound 13L, (3aS,4R,7R,9R,10R,11R,13R,15R,15aR)-10-{[(2S,3R,4S,6R)-4-(dimethylamino)-3-hydroxy-6-methyloxan-2-yl]oxy}-4-ethyl-3a,7,9,11,13,15-hexamethyl-1-[(1-methylpiperidin-4-yl)methyl]-11-{[(2E)-3-(quinolin-3-yl)prop-2-en-1-yl]oxy}-tetradecahydro-1H-oxacyclotetradeca[4,3-d][1,3]oxazole-2,6,8,14-tetrone] |  |  | 0.5 to 1 | 0.03 (≈ 0.0342 µM) |  | 0.5 to 1 |  | 0.5 to 1 | 0.06 (≈ 0.0684 µM) | 5.20 | lower IC50 inhibition of CYP3A4 inhibition |  |  |  |  |  |  |  |
| (3aS,4R,7R,9R,10R,11R,13R,15R,15aR)-10-{[(2S,3R,4S,6R)-4-(dimethylamino)-3-hydroxy-6-methyloxan-2-yl]oxy}-4-ethyl-3a,7,9,11,13,15-hexamethyl-1-{2-[(2R)-1-methylpyrrolidin-2-yl]ethyl}-11-{[(2E)-3-(quinolin-3-yl)prop-2-en-1-yl]oxy}-tetradecahydro-1H-oxacyclotetradeca[4,3-d][1,3]oxazole-2,6,8,14-tetrone [Compound 13P] |  |  | 0.12 to 0.25 | 0.015 to 0.03 |  | 0.5 to 1 |  | 0.06 to 0.12 | 0.03 to 0.06 |  | lower IC50 inhibition of CYP3A4 inhibition | 5.20 |  |  |  |  |  |  |
| CC[C@H]1OC(=O)[C@H](C)C(=O)[C@H](C)[C@@H](O[C@@H]2O[C@H](C)C[C@H](N(C)C)[C@H]2O)[C@](C)(OC/C=C/c2cnc3ccccc3c2)C[C@@H](C)C(=O)[C@H](C)[C@H]2NC(=O)O[C@@]21C [cethromycin] |  |  |  |  |  |  | strong inhibition |  |  |  |  |  | 6.20 | 0.4825 |  |  |  |  |
| (3aS,4R,7R,9R,10R,11R,13R,15R,15aR)-1-[2-(diethylamino)ethyl]-10{[(2S,3R,4S,6R)-4-(dimethylamino)-3-hydroxy-6-methyloxan-2-yl]oxy}-4-ethyl-3a,7,9,11,13,15-hexamethyl-11-{[(2E)-3-(quinolin-3-yl)prop-2-en-1-yl]oxy}-tetradecahydro-1H-oxacyclotetradeca[4,3-d][1,3]oxazole-2,6,8,14-tetrone [Compound 13A] |  |  | 0.12 to 0.25 | 0.008 to 0.015 |  | 0.12 to 0.25 |  | 0.12 to 0.25 | 0.015 to 0.06 | 5.92 | lower IC50 inhibition of CYP3A4 inhibition |  |  |  |  |  |  |  |
| (3aS,4R,7R,9R,10R,11R,13R,15R,15aR)-10-{[(2S,3R,4S,6R)-4-(dimethylamino)3-hydroxy-6-methyloxan-2-yl]oxy}-1-[3-(dimethylamino)propyl]-4-ethyl-3a,7,9,11,13,15-hexamethyl-11-{[(2E)-3-(quinolin-3-yl)prop-2-en-1-yl]oxy}tetradecahydro-1H-oxacyclotetradeca[4,3-d][1,3]oxazole-2,6,8,14-tetrone [Compound 13B] |  |  | 0.12 to 0.25 | 0.008 to 0.015 |  | 0.12 to 0.25 |  | 0.12 to 0.25 | 0.015 to 0.03 | 5.19 | lower IC50 inhibition of CYP3A4 inhibition |  |  |  | at least 8 hours | excellent | excellent | demonstrated efficacy |
| (3aS,4R,7R,9R,10R,11R,13R,15R,15aR)-10-{[(2S,3R,4S,6R)-4-(dimethylamino)-3-hydroxy-6-methyloxan-2-yl]oxy}-4-ethyl-3a,7,9,11,13,15-hexamethyl-1-[3-(morpholin-4-yl)propyl]-11-{[(2E)-3-(quinolin-3-yl)prop-2-en-1-yl]oxy}-tetradecahydro-1H-oxacyclotetradeca[4,3-d][1,3]oxazole-2,6,8,14-tetrone [Compound 13J] |  |  | 1 to 2.0 | 0.03 to 0.06 |  | 1 |  | 0.5 to 2 | 0.06 to 0.12 | 5.23 | lower IC50 inhibition of CYP3A4 inhibition |  |  |  |  |  |  |  |
